This assay relates to 17 highly resistant MRSA strains. As to the kind of experiment: In vitro activity: minimum inhibitory concentration (MIC) by the agar dilution method in Mueller Hinton agar, 17 highly resistant MRSA strains. Conditions: inoculum =10^5 CFU/spot. The format is cell-based, Methicillin resistant Staphylococcus aureus (MRSA). The protocol:
In vitro activity was determined by minimum inhibitory concentration (MIC) by the agar dilution method in Mueller Hinton agar inoculum =10^5 CFU/spot.

Converted amounts (≈) assume the structure as drawn. Structures can show the parent of a compound that is named as a salt.

Regarding `O=C(CSc1cc(Cl)c(Cl)cc1Cl)N[C@@H]1C(=O)N2C(C(=O)O)=C(/C=C3\CCN(C4CCNC4)C3=O)CS[C@H]12` (mixture of isomers) [Ex. 8, Mixture of (E)-(6R,7R)-8-oxo-3-[(R)- and-[(S)-2-oxo-[1,3']bipyrrolidinyl-3-ylidenemethyl]-8-oxo-7-[2-(2,4,5-trichloro-phenylsulfanyl)-acetylamino]-5-thia-1-aza-bicyclo[4.2.0]oct-2-ene-2-carboxylic acid hydrochloride], where the note is “Table 1, substance alone”, the MIC50 was > 16 µg/mL and the MIC90 was > 16 µg/mL. For the setting “Table 2, substance alone”, the MIC50 was > 16 µg/mL and the MIC90 was > 16 µg/mL.
As for `CCN1CCN(C(=O)N[C@@H](C(=O)N[C@@H]2C(=O)N3C(C(=O)O)=C(CSc4nnnn4C)CS[C@H]23)c2ccc(O)cc2)C(=O)C1=O` [Cefoperazone, reference compound], under “Table 1, substance alone”, the MIC50 is > 64 µg/mL, the MIC90 was > 64 µg/mL and the “range of MIC” value was > 64 µg/mL.
Consider `CO/N=C(\C(=O)N[C@@H]1C(=O)N2C(C(=O)O)=C(COC(C)=O)CS[C@H]12)c1csc(N)n1` [Cefotaxime, reference compound], for which, under “Table 1, substance alone”, the MIC50 was > 64 µg/mL, the MIC90 is > 64 µg/mL and the “range of MIC” value was > 64 µg/mL.
Consider `CN(C)CCn1nnnc1SCC1=C(C(=O)O)N2C(=O)[C@@H](NC(=O)Cc3csc(N)n3)[C@H]2SC1` [Cefotiam, reference compound], for which, under “Table 1, substance alone”, the MIC50 was > 64 µg/mL, the MIC90 is > 64 µg/mL and the “range of MIC” value was > 64 µg/mL.
As to `Cc1cc(=O)c(C(=O)N[C@@H](C(=O)N[C@@H]2C(=O)N3C(C(=O)O)=C(CSc4nnnn4C)CS[C@H]23)c2ccc(O)cc2)c[nH]1` [Cefpiramid, reference compound], under “Table 1, substance alone”, the MIC50 is > 64 µg/mL, the MIC90 was > 64 µg/mL and the “range of MIC” value is > 64 µg/mL.
Consider `CO/N=C(\C(=O)N[C@@H]1C(=O)N2C(C(=O)O)=C(CSc3nc(=O)c(=O)[nH]n3C)CS[C@H]12)c1csc(N)n1` [Ceftriaxone, reference compound], for which, for the setting “Table 1, substance alone”, the MIC50 was > 64 µg/mL, the MIC90 is > 64 µg/mL and the “range of MIC” value was > 64 µg/mL.
On to `O=C(C[n+]1ccc(CN2CC/C(=C\C3=C(C(=O)[O-])N4C(=O)[C@@H](NC(=O)CSc5cc(Cl)c(Cl)cc5Cl)[C@H]4SC3)C2=O)cc1)Nc1ccc(O)cc1` [Ex. 1, (E)-(6R,7R)-3-[1-[1-[(4-Hydroxy-phenylcarbamoyl)-methyl]-pyridin-1-ium-4-ylmethyl]-2-oxo-pyrrolidin-3-ylidenemethyl]-8-oxo-7-[2-(2,4,5-trichloro-phenylsulfanyl)-acetylamino]-5-thia-1-aza-bicyclo[4.2.0]oct-2-ene-2-carboxylate], for which, under “Table 1, substance alone”, the MIC50 was > 16 µg/mL and the MIC90 was > 16 µg/mL. For the same compound, for the setting “Table 2, substance alone”, the MIC50 was > 16 µg/mL and the MIC90 was > 16 µg/mL.
Consider `O=C(C[n+]1ccc(CN2CC/C(=C\C3=C(C(=O)[O-])N4C(=O)[C@@H](NC(=O)CSc5nc6ccccc6s5)[C@H]4SC3)C2=O)cc1)Nc1ccc(O)cc1` [Ex. 2, (E)-(6R,7R)-3-[1-[1-[(4-Hydroxy-phenylcarbamoyl)-methyl]-pyridin-1-ium-4-ylmethyl]-2-oxo-pyrrolidin-3-ylidenemethyl]-8-oxo-7-[2-(1-benzothiazol-2-ylsulfanyl)-acetylamino]-5-thia-1-aza-bicyclo[4.2.0]oct-2-ene-2-carboxylate], for which the MIC50 was > 16 µg/mL (Table 1, substance alone) and > 16 µg/mL (Table 2, substance alone). Further, the MIC90 by setting is: (Table 1, substance alone) > 16 µg/mL; (Table 2, substance alone) > 16 µg/mL.
As for `O=C(CSc1nc2ccccc2s1)N[C@@H]1C(=O)N2C(C(=O)O)=C(/C=C3\CCN(CC4CC4)C3=O)CS[C@H]12` [Ex. 3, (E)-(6R,7R)-7-[2-(Benzothiazol-2-ylsulfanyl)-acetylamino]-3-(1-cyclopropyl-methyl-2-oxo-pyrrolidin-3-ylidenemethyl)-8-oxo-5-thia-1-aza-bicyclo[4.2.0]-oct-2-ene-2-carboxylic acid], under “Table 1, substance alone”, the MIC50 is 16 µg/mL (≈ 28.7 µM) and the MIC90 was > 16 µg/mL.
For `O=C(C[n+]1ccc(CN2CC/C(=C\C3=C(C(=O)[O-])N4C(=O)[C@@H](NC(=O)CSc5ccncc5)[C@H]4SC3)C2=O)cc1)Nc1ccc(O)cc1` [Ex. 4, (E)-(6R,7R)-3-[1-[1-[(4-Hydroxy-phenylcarbamoyl)-methyl]-pyridin-1-ium-4-ylmethyl]-2-oxo-pyrrolidin-3-ylidenemethyl]-8-oxo-7-[2-(pyridin-4-yl-sulfanyl)-acetylamino]-5-thia-1-aza-bicyclo[4.2.0]oct-2-ene-2-carboxylate], under “Table 1, substance alone”, the MIC50 was > 16 µg/mL and the MIC90 is > 16 µg/mL. Besides, where the note is “Table 2, substance alone”, the MIC50 was > 16 µg/mL and the MIC90 was > 16 µg/mL.
Regarding `O=C(C[n+]1ccc(CN2CC/C(=C\C3=C(C(=O)[O-])N4C(=O)[C@@H](NC(=O)CSc5ccc6ccccc6c5)[C@H]4SC3)C2=O)cc1)Nc1ccc(O)c(F)c1` [Ex. 5, (E)-(6R,7R)-3-[1-[1-[(3-Fluoro-4-hydroxy-phenylcarbamoyl)-methyl]-pyridin-1-ium-4-ylmethyl]-2-oxo-pyrrolidin-3-ylidenemethyl]-7-[2-(naphthalen-2-ylsulfanyl)-acetylamino]-8-oxo-5-thia-1-aza-bicyclo[4.2.0]oct-2-ene-2-carboxylat], the MIC50 is, setting by setting: (Table 1, substance alone) > 16 µg/mL; (Table 2, substance alone) > 16 µg/mL. Moreover, the MIC90 reads like this: (Table 1, substance alone) > 16 µg/mL; (Table 2, substance alone) > 16 µg/mL.
For the compound `O=C(CSc1cc(Cl)c(Cl)cc1Cl)N[C@@H]1C(=O)N2C(C(=O)O)=C(/C=C3\CCN(Cc4cccc(O)c4)C3=O)CS[C@H]12` [Ex. 6, (E)-(6R,7R)-3-[1-(3-Hydroxy-benzyl)-2-oxo-pyrrolidin-3-ylidenemethyl]-8-oxo-7-[2-(2,4,5-trichloro-phenylsulfanyl)-acetylamino]-5-thia-1-aza-bicyclo[4.2.0]oct-2-ene-2-carboxylic acid], for the setting “Table 1, substance alone”, the MIC50 was determined as 16 µg/mL (≈ 24.4 µM) and the MIC90 was > 16 µg/mL. For the same compound, under “Table 2, substance alone”, the MIC50 was found to be 16 µg/mL (≈ 24.4 µM) and the MIC90 is > 16 µg/mL.
In the case of `O=C(CSc1ccc2ccccc2c1)N[C@@H]1C(=O)N2C(C(=O)O)=C(/C=C3\CCN(Cc4cccc(O)c4)C3=O)CS[C@H]12` [Ex. 7], under “Table 1, substance alone”, the MIC50 was found to be 16 µg/mL (≈ 26.6 µM), the MIC90 came to 16 µg/mL (≈ 26.6 µM) and the “range of MIC” value was in the range of 2 to 16 µg/mL. For the same compound, under “Table 2, substance alone”, the MIC50 was found to be 16 µg/mL (≈ 26.6 µM), the MIC90 was 16 µg/mL (≈ 26.6 µM) and the “range of MIC” value is 2 to 16 µg/mL.
Take `O=C(C[n+]1ccc(CN2CC/C(=C\C3=C(C(=O)[O-])N4C(=O)[C@@H](NC(=O)CSc5ccccc5)[C@H]4SC3)C2=O)cc1)Nc1ccc(O)c(F)c1` [Ex. 9, (E)-(6R,7R)-3-[1-[1-[(3-Fluoro-4-hydroxy-phenylcarbamoyl)-methyl]-pyridin-1-ium-4-ylmethyl]-2-oxo-pyrrolidin-3-ylidenemethyl]-8-oxo-7-(2-phenylsulfanyl-acetylamino)-5-thia-1-aza-bicyclo[4.2.0]oct-2-ene-2-carboxylate]: where the note is “Table 1, substance alone”, the MIC50 came to 16 µg/mL (≈ 22.7 µM) and the MIC90 is 16 µg/mL (≈ 22.7 µM). Also, under “Table 2, substance alone”, the MIC50 is 16 µg/mL (≈ 22.7 µM) and the MIC90 was found to be 16 µg/mL (≈ 22.7 µM).
